# Data: patent US20250249056A1, “CANCER THERAPIES COMPRISING A NUCLEAR EXPORT INHIBITOR AND AN ONCOLYTIC VIRUS” (priority 2022, published 2025)
# Entries after “also recorded” stand apart in the source; their conditions may differ.
# Experiments:
# Colo205 cells = test: CyQUANT NF cell proliferation assay (Colo205); assay type: cell-based, human; settings: after 24 hours compared to mock treated cells, selinexor 0.1 or 1 μM, multiple MOI
# Procedure: (§1) Cell Proliferation Assay: To measure cancer cell proliferation based on the amount of cellular DNA, the CyQuant™ NF Cell Proliferation Assay Kit (Invitrogen) was used according to the manufacturer's instructions. Briefly, PANC-1, HT29, MDA-MB435, and Colo205 cells were seeded in a 96-well plate (1×10^4 cells/well) and left to attach to the wells overnight. The next day, the medium was removed and replaced with 50 μL medium containing different concentrations of selinexor (0-1 μM). After an hour of incubation with selinexor, the virus was added to different MOIs (0.5-5), bringing the end volume of every well up to 100 μL. A 1× dye binding solution was prepared by adding 9 μL of the CyQuant™ NF Dye reagent in 4.5 mL Hank's Balanced Salt Solution (HBSS) buffer (Invitrogen). After 24, 48, 72, and 96 hours of incubation, the medium was removed from the cells and 50 μL 1× dye solution was added to all wells. The microplate was covered to protect it from light and was incubated for 30-60 minutes in a 5% CO2 incubator at 37° C. Subsequently, cell proliferation was quantified by measuring fluorescence with an excitation of 485 nm and emission of 530 nm in a VarioSkan Lux Microplate reader (Thermo Fisher). All experiments were performed in quadruple and normalized to mock-treated cells.
# MYXV = MYXV reporter gene expression (GFP/TdTomato) and foci by fluorescence microscopy in human cancer cell lines
# PANC-1 cells [1] = test: Click-iT EdU cell proliferation assay; assay type: cell-based, human; settings: PANC-1 cells treated for 24 hours; selinexor or MYXV
# Procedure: Selinexor was previously reported to reduce the proliferation of cancer cells, however, viral infection also stops cell proliferation (Zheng, Y., et al., 2014, Cancer Chemotherapy and Pharmacology, 74:487-495; Johnston, J. B., et al., 2005, Journal of Virology, 79:10750-10763). As such, the effect of selinexor and MYXV on human cancer cells was examined alone and in combination. To this end, two cell proliferation assays were performed. In the first methods, DNA synthesis was measured by the incorporation of EdU (5-ethynyl-2′-deoxyuridine), a nucleoside analog of thymidine, into DNA during active DNA synthesis (FIG. 4A) (Chehrehasa F., et al., 2009, Journal of Neuroscience Methods, 177:122-130). Using this method in uninfected PANC-1 cells, EdU incorporation was detected in more than 50% of dividing cells (FIG. 4B and FIG. 4C). When cells were treated with selinexor or MYXV for 24 hours, on the other hand, a significant reduction in proliferation was observed (20% EdU-positive cells). […]
# Click-iT EdU Cell Proliferation Assay: To visualize and measure cell proliferation, a Click-iT™ EdU cell proliferation assay (Thermo Fisher) was used according to the manufacturer's instructions. […] Fluorescence images were obtained using a fluorescence microscope and fluorescence signals were analyzed using ImageJ software.
# [2] = tested on: PANC-1, Colo205, HT29, and MDMB435 cells; test: Cell viability assay (MTS); assay type: cell-based, human
# Procedure: To further assess the inhibition of cell proliferation, and investigate if cell death is enhanced, cell viability assays were performed using an MTS assay to detect metabolic activity in active cells. For this assay, PANC-1 (FIG. 5A through FIG. 5D), Colo205 (FIG. 5E through FIG. 5H), HT29, and MDMB435 cells were treated with different concentrations of selinexor, infected with MYXB at different MOIs, or treated with a combination of selinexor and MYXB, and cell viability was measured at different time points.
# Cell Viability Assay: To assess the viability of different human cancer cells after selinexor treatment or MYXV infection, 10,000 cells were seeded into each well of a 96-well plate. The next day, cells were treated with different concentrations of selinexor, infected with different MOIs of MYXV, or treated with different concentrations of selinexor for 1 hour followed by infection with different MOIs of MYXV. A minimum of four wells were used for each treatment condition, and untreated cells (mock) served as controls. Cell viability was assessed at 24, 48, 72, and 96 hours using an MTS assay.
# [3] = tested on: Lewis lung carcinoma (LLC1) cells; test: Lewis lung carcinoma (LLC1) tumor model in immunocompetent C57BL/6 mice; assay type: in vivo; settings: single agents; selinexor 15 mg/kg oral; MYXV expressing IL15/IL15Ra (vMyx-IL15Ra) IT 5×10^7 FFU; left and right tumors
# Procedure: To verify that the combination of selinexor and MYXV is effective even in mice with a competent immune system, C57BL/6 mice were inoculated with mouse Lewis lung carcinoma (LLC1) cells (FIG. 14A). LLC1 cells were subcutaneously injected on both sides of the flank in C57BL/6 mice. Mice were separated into treatment groups and treated with PBS, selinexor, MYXV expressing IL15/IL15Ra (IT, 5×10^7), or selinexor+MYXV expressing IL15/IL15Ra.
# The tumor burden on each flank was measured twice every week.
# PANC-1 cells [4] = test: CyQUANT NF cell proliferation assay (PANC-1); assay type: cell-based, human; settings: after 24 hours compared to mock treated cells, selinexor 0.1 or 1 μM, multiple MOI
# Procedure: as §1
compound,measurement,setting,value
O=C(/C=C\n1cnc(-c2cc(C(F)(F)F)cc(C(F)(F)F)c2)n1)NNc1cnccn1 [selinexor],cell proliferation (DNA content),Colo205 cells,significant reductions in cell proliferation
same,GFP and TdTomato reporter protein expression,"MYXV; PANC-1, Colo205, MDA-MB435, HCT116, selinexor 0.1-10 μM pre-treatment 1 h, vMyx-GFP-TdTomato MOI 5, 48 h post-infection",Enhanced GFP and TdTomato reporter protein expression
same,foci formation in restricted human cancer cell lines,"MYXV; infected at low MOI, selinexor treatment",formation of small foci
same,cell death caused by selinexor alone,"MYXV; selinexor 10 μM or higher, all cancer cell lines tested",enhanced cell death
same,EdU-positive cells,PANC-1 cells [1],20%
same,cell viability,"[2]; selinexor 0.5 μM or 1 μM, over time, all cells tested",50%
same,cell viability,[2]; selinexor alone 0.1 μM or 0.05 μM,no effect on cell viability; also recorded: almost no effect
same,tumor burden,[3],significantly reduced tumor burden
same,cell proliferation (DNA content),PANC-1 cells [4],significant reductions in cell proliferation
